From patent US20120184590A1, “FORMULATIONS OF INDOLE-3-CARBINOL DERIVED ANTITUMOR AGENTS WITH INCREASED ORAL BIOAVAILABILITY” (UNIVERSITY OF KANSAS, priority 2009, published 2012)
Several values for one entry are separate records, joined by “and”; a condition that tells them apart may be missing. Equal entries are not always repeated. Where two headings read alike, the source gives them in different places. Marks after values point to notes of the source that are not given here.

What was measured:
[1] = Pharmacokinetics of SR13668 in monkeys after i.v. and oral gavage dosing; type: in vivo, cynomolgus monkeys (macaca fasicularis); details: fed; for Vd/F: read-out: VZ/F
From the text: Four non-naïve male beagle dogs (approximately 3 years of age; Ridglan Farms Inc. Mt. Horeb, Wis.) and four non-naïve male cynomolgus monkeys [cynos (macaca fasicularis); approximately 7 to 8 years of age; Charles River Laboratories, Inc., Houston, Tex.] were used in this study. Prior to experimental initiation for the present study, the attending veterinarian certified that the animals were healthy and free from disease and parasites.
For both species, each animal was part of each experimental group, with a 7-day interval between treatments to allow for washout of the dosing formulation and its effects. Dosing formulations of SR13668 were administered by oral gavage (intragastric) or intravenous (i.v.) injection as a single dose or once daily for seven consecutive days. Oral to doses were administered at a dosing volume of 5 mL/kg of body weight, while intravenous doses were administered at a dosing volume of 0.5 mL/kg of body weight. Dogs were dosed with 93.6 mg/m^2 SR13668 intravenously in DMSO:PEG300 15:85 (v/v) or orally in Solutol® vehicle (two groups, fed and after an overnight fast). Monkeys were dosed with 84.2 mg/m^2 SR13668 intravenously in DMSO:PEG300 15:85 (v/v) or orally (336.7 mg/m^2 SR13668 for the oral high dose group) in PEG400:Labrasol® 1:1 (v/v) or Solutol® vehicles. Vehicle control groups were used to assess the tolerability of the vehicle and for clinical pathology evaluations.
Blood samples were collected from each animal at 10 time points (0, 0.25, 0.5, 1, 2, 4, 6, 8, 12 and 24 hours post-dose) during the first and last 24-hour segment of each dosing regimen. For single intravenous dose experiments, samples were collected during the 24-hour post-dose period only. Samples were transferred to Vacutainer tubes containing ethylenediaminetetraacetic acid (EDTA; Fisher Scientific, Pittsburgh, Pa.). The tubes were inverted several times to mix and then placed on ice until storage or centrifugation for plasma preparation. After centrifugation, the plasma was transferred into storage tubes (0.5 mL), which were placed on dry ice and then stored frozen (approximately −70° C.).
Levels of SR13668 in plasma and blood were measured using a tandem mass to spectrometer (API 3000; Applied Biosystems/MDS Sciex, Foster City, Calif.) equipped with a high performance liquid chromatograph (Agilent 1200; Agilent Technologies, Wilmington, Del.). For SR13668 determination, a 100 μL blood or plasma aliquot was mixed with 1 mL of acetonitrile (ACN; Sigma-Aldrich, St. Louis, Mo.). After vortex-mixing for one minute, the sample was centrifuged at 4° C. and 7000 RPM for 10 minutes to remove precipitated proteins, and the supernatant was transferred to a clean tube and dried under nitrogen flow at room temperature (approximately 25° C.). After the evaporation was completed, the residue was reconstituted in 500 μL of ACN/water (v/v 70:30), and vortex-mixed and centrifuged again. An aliquot of the resulting supernatant was transferred to an autosampler tube for instrumental analysis.
A freshly prepared SR13668 standard curve was analyzed along with samples on each day of analysis. The chromatographic column was a Luna 3μ C18(2) 110 Å 30×2.0 mm (Phenomenex, Torrance, Calif.). The column temperature was maintained at 25° C., and a flow rate of 0.30 mL/min was used. The mobile phase consisted of MPA: formic acid in water (0.05%, v/v) and MPB: formic acid in ACN (0.05%, v/v). The mobile phase gradient was as follows: after injection, initial conditions with MPA at 40% were held for 0.01 min, decreased to 5% and held constant for 3 min, returning to initial conditions for another 3 min of re-equilibration time. Retention time of SR13668 was approximately 2.4 min. Total run time was 6 min. A turbo ion spray interface was used as the ion source operating in negative ion mode. Acquisition was performed in multiple reaction monitoring mode using ions 429.15 (Q1) and 414.12 (Q3) Dalton. […]

[2] = Oral bioavailability of PEG400:Labrasol formulation in dogs (earlier finding); details: dog, in vivo
[3] = male, cynomolgus monkey, whole blood, po, 7.02 mg/kg, 84.2 mg/m^2 (7.02 mg/kg) oral gavage, Solutol, seventh daily dose
[4] = male, cynomolgus monkey, whole blood, po, 7.02 mg/kg, whole blood, 84.2 mg/m^2 (7.02 mg/kg) oral gavage, PEG400:Labrasol 1:1 v/v, seventh daily dose
[5] = male, cynomolgus monkey, whole blood, po, 28.06 mg/kg, whole blood, 336.7 mg/m^2 (28.06 mg/kg) oral gavage, PEG400:Labrasol 1:1 v/v, seventh daily dose
[6] = male, cynomolgus, cynomolgus monkey, plasma, iv, 7.02 mg/kg, plasma, 84.2 mg/m^2 (7.02 mg/kg) i.v. single dose, DMSO:PEG300 15:85 v/v
[7] = male, cynomolgus, cynomolgus monkey, plasma, po, 7.02 mg/kg, plasma, 84.2 mg/m^2 (7.02 mg/kg) oral gavage, PEG400:Labrasol 1:1 v/v, seventh daily dose
[8] = plasma, 84.2 mg/m^2 (7.02 mg/kg) i.v. single dose, DMSO:PEG300 15:85 v/v
[9] = whole blood, 84.2 mg/m^2 (7.02 mg/kg) iv single dose, DMSO:PEG300 15:85 v/v

CCOC(=O)c1ccc2[nH]c3c(OC)c4[nH]c5ccc(C(=O)OCC)cc5c4cc3c2c1 [SR13668, 2,10-dicarbethoxy-6-methoxy-5,7-dihydro-indolo-(2,3-b)carbazole]
Tmax [1, 3]: 6.5 ± 3.8 h
half-life [1, 3]: 7.7 ± 0.6 h
AUC(0-inf) [1, 4]: 1560 ± 1330 ng·h/mL
Cmax [1, 4]: 129 ± 140 ng/mL
MRT [1, 4]: 11.5 ± 1.2 h
Tmax [1, 4]: 7 ± 0.35 h
half-life [1, 4]: 5.8 ± 0.9 h
CL/F ([1]; male, cynomolgus monkey, whole blood, po, 7.02 mg/kg, whole blood, 84.2 mg/m^2 (7.02 mg/kg) oral gavage, PEG400:Labrasol 1:1 v/v, seventh daily dose, read-out: CL/F (converted)): 121 mL/min/kg
Vd/F [1, 4]: 61.4 ± 44 L/kg
CL/F ([1]; male, cynomolgus monkey, whole blood, po, 7.02 mg/kg, whole blood, 84.2 mg/m^2 (7.02 mg/kg) oral gavage, Solutol, seventh daily dose, read-out: CL/F (converted)): 47.7 mL/min/kg
Vd/F ([1]; male, cynomolgus monkey, whole blood, po, 7.02 mg/kg, whole blood, 84.2 mg/m^2 (7.02 mg/kg) oral gavage, Solutol, seventh daily dose): 31.6 ± 5 L/kg
AUC(0-inf) [1, 5]: 1520 ± 445 ng·h/mL
Cmax [1, 5]: 168 ± 35 ng/mL
MRT [1, 5]: 10.9 ± 2.2 h
Tmax [1, 5]: 3.5 ± 1.9 h
half-life [1, 5]: 6.8 ± 1.2 h
CL/F ([1]; male, cynomolgus monkey, whole blood, po, 28.06 mg/kg, whole blood, 336.7 mg/m^2 (28.06 mg/kg) oral gavage, PEG400:Labrasol 1:1 v/v, seventh daily dose, read-out: CL/F (converted)): 332 mL/min/kg
Vd/F [1, 5]: 195 ± 73 L/kg
Tmax [1, 6]: 0.25 h
half-life [1, 6]: 7.6 ± 0.8 h
half-life ([1]; male, cynomolgus, cynomolgus monkey, plasma, po, 7.02 mg/kg, 84.2 mg/m^2 (7.02 mg/kg) oral gavage, Solutol, seventh daily dose): 7.4 ± 0.7 h
Tmax [1, 7]: 5 ± 1.2 h
half-life [1, 7]: 6 ± 1.3 h
half-life ([1]; male, cynomolgus, cynomolgus monkey, plasma, po, 28.06 mg/kg, plasma, 336.7 mg/m^2 (28.06 mg/kg) oral gavage, PEG400:Labrasol 1:1 v/v, seventh daily dose): 5 ± 1.2 h
clearance ([1]; male, cynomolgus, cynomolgus monkey, whole blood, blood clearance, 84.2 mg/m^2 (7.02 mg/kg) iv, DMSO:PEG300 15:85 v/v): 3.63 mL/min/kg
CL/F [1, 8]: 0.580 ± 0.20^c,d L/hr/kg
F0-∞ [1, 8]: 100%
F0-∞ ([1]; plasma, 84.2 mg/m^2 (7.02 mg/kg) oral gavage, PEG400:Labrasol 1:1 v/v, seventh daily dose): 3.3 ± 2.0^f %
F0-∞ ([1]; plasma, 84.2 mg/m^2 (7.02 mg/kg) oral gavage, Solutol, seventh daily dose): 7.3 ± 2.9^i %
F0-∞ ([1]; plasma, 336.7 mg/m^2 (28.06 mg/kg) oral gavage, PEG400:Labrasol 1:1 v/v, seventh daily dose): 0.72 ± 0.28^i %
CL/F [1, 9]: 0.218 ± 0.078^c,d,h L/hr/kg
F0-∞ [1, 9]: 100%
F0-∞ ([1]; whole blood, 84.2 mg/m^2 (7.02 mg/kg) oral gavage, PEG400:Labrasol 1:1 v/v, seventh daily dose): 3.8 ± 3.1^e,h % and 3.8%
F0-∞ ([1]; whole blood, 84.2 mg/m^2 (7.02 mg/kg) oral gavage, Solutol, seventh daily dose): 8.3 ± 3.1^e,h,i % and 8.3%
F0-∞ ([1]; whole blood, 336.7 mg/m^2 (28.06 mg/kg) oral gavage, PEG400:Labrasol 1:1 v/v, seventh daily dose): 1.1 ± 0.44^h % and 1.1%
bioavailability [2]: < 1%
